Data taken from patent US20110263580A1, “METHOD FOR TREATING ALZHEIMER'S DISEASE AND RELATED CONDITIONS” (priority 2008, published 2011).
Like-named read-outs stand apart in the source and are kept apart here.

Tests used:
[1] = rhesus monkey, in vivo; for Tolerated: po
Procedure: Compound IA (synthesis example 2 herein) was administered orally to groups of rhesus monkeys by continuous and intermittent regimens over periods of days or weeks. Physical signs were recorded and the absence of loose stool, and other overt physical signs, was taken as tolerance.

Aβ [2] = test: CSF levels of Aβ post-dose in rhesus monkey; assay type: in vivo
[3] = mouse, in vivo, po
Procedure: Compound IIIA (prepared as described in Sparey et al, Bioorg. Med. Chem. Lett. (2005) 15, 4212-4216) was administered orally to groups of mice (n=10) via gavage in 0.5% methylcellulose by a variety of continuous and intermittent regimens over periods of several weeks, and body weights recorded twice-weekly as a measure of tolerance or otherwise of the drug treatment. Less than 20% loss of body weight after 21 days, with no other overt symptoms, was taken as tolerance, and the results are summarised in the following table: […]

[4] = Plasma levels of the drug after a single dose in mice; assay type: in vivo; details: single dose of 300 mg/Kg
Procedure: (§1) Compound IIIA (prepared as described in Sparey et al, Bioorg. Med. Chem. Lett. (2005) 15, 4212-4216) was administered orally to groups of mice (n=10) via gavage in 0.5% methylcellulose by a variety of continuous and intermittent regimens over periods of several weeks, and body weights recorded twice-weekly as a measure of tolerance or otherwise of the drug treatment. Less than 20% loss of body weight after 21 days, with no other overt symptoms, was taken as tolerance, and the results are summarised in the following table:
(§2) Plasma levels of Aβ were monitored 4 hours, 1 day, 3 days, 4 days and 7 days after a single dose of 300 mg/Kg, and found to be (respectively), 0%, 0%, 0%, 67% and 85% of the baseline (control) level, indicating prolonged therapeutic efficacy from the single dose. Plasma levels of the drug had declined to zero within 4 days of the single dose.

Aβ [5] = test: Plasma levels of Aβ after a single dose in mice; assay type: in vivo; details: single dose of 300 mg/Kg
Procedure: as §1, §2

Aβ42 = test: CSF Aβ42 in rhesus monkeys, once-weekly dosing; assay type: in vivo; details: oral, once-weekly 30 mpk, over a 3 week period, relative to vehicle-treated controls
Procedure: (§3) Compound VIB (Example 23 herein) was administered orally to rhesus monkeys once-weekly at a dose of 30 mpk and levels of Aβ40 and Aβ42 in the cerebrospinal fluid (CSF) were monitored.

Aβ40 = test: CSF Aβ40 in rhesus monkeys, once-weekly dosing; assay type: in vivo; details: oral, once-weekly 30 mpk, over a 3 week period, relative to vehicle-treated controls
Procedure: as §3

[6] = Side effects in rhesus monkeys, once-weekly dosing; assay type: in vivo; details: oral, once-weekly 30 mpk
Procedure: as §3

Compound: O=S(=O)(N[C@H]1C[C@@](c2cc(F)ccc2F)(S(=O)(=O)c2ccc(Cl)cc2)C1)C(F)(F)F [Compound IA, N-[cis-3-[(4-chlorophenyl)sulfonyl]-3-(2,5-difluorophenyl)cyclobutyl]-1,1,1-trifluoromethanesulfonamide]
- Tolerance [1]: tolerated
- Tolerated ([1]; 3 mg/kg): No
- Tolerated ([1]; 50 mg/kg): Yes
- Tolerated ([1]; 200 mg/kg): Yes
- Effect on CSF levels of Aβ (Aβ [2]; doses below 10 mg/Kg): do not effect Aβ levels appreciably
- Effect on CSF levels of Aβ (Aβ [2]; weekly doses): lower CSF Aβ significantly

Compound: O=S1(=O)NC2(CN1CC(F)(F)F)C1CCC2Cc2cc(C=CCN3CCC(C(F)(F)F)CC3)ccc2C1 (stereo not shown) [Compound IIIA]
- Tolerated ([3]; 50 mg/kg): Yes
- Tolerated ([3]; 150 mg/kg): No
- Tolerated ([3]; 300 mg/kg): Yes
- Time until plasma levels of the drug had declined to zero [4]: ≤ 4 days
- Plasma levels of Aβ, % of the baseline (control) level (Aβ [5]; 4 hours after dose): 0%
- Plasma levels of Aβ, % of the baseline (control) level (Aβ [5]; 1 day after dose): 0%
- Plasma levels of Aβ, % of the baseline (control) level (Aβ [5]; 3 days after dose): 0%
- Plasma levels of Aβ, % of the baseline (control) level (Aβ [5]; 4 days after dose): 67%
- Plasma levels of Aβ, % of the baseline (control) level (Aβ [5]; 7 days after dose): 85%

Compound: O=S(=O)(N[C@H]1CC[C@@](c2cc(F)ccc2C(F)(F)F)(S(=O)(=O)c2ccc(C(F)(F)F)cc2)CC1)C(F)(F)F [Compound VIB, 1,1,1-trifluoro-N-(4-[5-fluoro-2-(trifluoromethyl)phenyl]-4-{[4-(trifluoromethyl)phenyl]sulfonyl}cyclohexyl)methanesulfonamide]
- Average reduction in CSF Aβ42 levels (Aβ42): approximately 40%
- Average reduction in CSF Aβ40 levels (Aβ40): approximately 40%
- GI toxicity ([6]; 3 week period): no evidence of GI toxicity
- Other side-effects (study terminated after 3 weeks) ([6]; unconnected with Notch signalling): respiratory side-effects
